Source: patent publication US8106055B2, “Substituted amide compounds” (Gruenenthal GmbH, priority 2007, dated 2012)

Experiments:
[1] = molecular target: T1, serotonin (5-HT) reuptake (Rattus norvegicus, UniProt P31652); assay: Inhibition of serotonin (5HT) reuptake in synaptosomes from rat brain; assay type: biochemical; conditions: test concentration of 10 μM; for inhibition at 10 µM: read-out: 5-HT (inhibition of reuptake of serotonin, % inhibition)
T1 construct: synaptosomes are freshly isolated from areas of the rat brain; from tissue; host or cells: rat brain synaptosomes (P2 fraction)
T1 sequence (P31652 whole entry): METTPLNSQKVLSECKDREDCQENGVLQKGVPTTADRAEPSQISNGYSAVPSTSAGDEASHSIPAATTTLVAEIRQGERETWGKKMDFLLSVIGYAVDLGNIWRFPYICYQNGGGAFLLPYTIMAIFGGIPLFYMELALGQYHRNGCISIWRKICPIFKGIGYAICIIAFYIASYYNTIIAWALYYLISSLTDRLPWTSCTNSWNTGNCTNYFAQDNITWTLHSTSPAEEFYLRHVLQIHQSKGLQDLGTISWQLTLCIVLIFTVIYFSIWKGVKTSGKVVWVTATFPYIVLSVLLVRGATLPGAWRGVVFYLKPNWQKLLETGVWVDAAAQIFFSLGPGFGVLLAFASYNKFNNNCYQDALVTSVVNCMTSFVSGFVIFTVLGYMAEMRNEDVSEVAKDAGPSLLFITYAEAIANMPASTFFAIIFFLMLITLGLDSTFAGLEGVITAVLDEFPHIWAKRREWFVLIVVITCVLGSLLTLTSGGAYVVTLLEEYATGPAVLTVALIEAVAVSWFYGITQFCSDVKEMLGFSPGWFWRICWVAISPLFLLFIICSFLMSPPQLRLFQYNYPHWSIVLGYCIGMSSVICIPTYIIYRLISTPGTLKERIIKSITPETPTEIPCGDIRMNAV
Outline: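 Freshly isolated rat brain synaptosomes (P2 fraction) used for 5-HT reuptake. Test compound at 10 μM, activity given as % inhibition.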

[2] = molecular target: T2, human bradykinin 1 receptor (B1R) (Homo sapiens, UniProt P46663); assay: Functional investigation on the human bradykinin 1 receptor (B1R), Ca2+ FLIPR assay in CHO K1 hB1R cells; assay type: cell-based; conditions: test substance 10 μM, Ca2+ FLIPR, CHO K1 hB1R cells; for B1R Ant. h [10 μM] % Inhibition: B1R antagonism human; for inhibition at 10 µM: CHO-K1, B1R antagonism human, read-out: B1R Ant. h [10 μM] % Inhibition
T2 construct: expressed in transfected cells; host or cells: CHO K1 cells
T2 sequence (P46663 1-353): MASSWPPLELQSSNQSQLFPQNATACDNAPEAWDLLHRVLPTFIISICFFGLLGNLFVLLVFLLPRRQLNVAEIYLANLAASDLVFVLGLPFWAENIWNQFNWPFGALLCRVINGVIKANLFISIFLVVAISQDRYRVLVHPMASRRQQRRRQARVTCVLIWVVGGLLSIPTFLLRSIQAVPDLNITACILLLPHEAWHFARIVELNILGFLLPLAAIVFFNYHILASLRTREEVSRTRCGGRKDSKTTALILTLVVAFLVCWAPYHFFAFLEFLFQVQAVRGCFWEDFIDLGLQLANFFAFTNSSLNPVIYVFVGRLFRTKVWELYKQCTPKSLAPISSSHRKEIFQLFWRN
Outline: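 Cells were dye-loaded with Fluo-4 plus probenecid, then test substances added and Ca2+ influx compared with agonist control for % activation. After 10-20 min, EC80 agonist (Lys-Des-Arg9-bradykinin human; Des-Arg9-bradykinin rat) was applied; suppression gave % inhibition and IC50 values.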

SMILES | 5-HT (inhibition of reuptake of serotonin, % inhibition) [1] | B1R Ant. h [10 μM] % Inhibition [2] | 5-HT (inhibition of reuptake of serotonin, % inhibition) ([1]; 10 µM) | inhibition at 10 µM [1] | inhibition at 10 µM [2]
CN(C)C(c1ccc(F)cc1)C1CCC(CNC(=O)COC2CCN(S(=O)(=O)c3ccccc3)CC2)CC1 (stereo not shown) [Example 568] | 97% | −20% | – | – | –
CN(C)C(CCc1ccccc1)C1CCC(CNC(=O)COCCN(C)S(=O)(=O)c2c(Cl)cccc2Cl)CC1 (stereo not shown) [Example 580] | – | 95% | 77% | – | –
CN(C)C(CCc1ccccc1)C1CCC(CNC(=O)COCCN(C)S(=O)(=O)c2c(Cl)cccc2Cl)CC1 (stereo not shown) [Example 476] | – | 103% | 80% | – | –
COc1ccc(S(=O)(=O)N2CCCCC2COCC(=O)NCC2CCC(C(CCc3ccccc3)N(C)C)CC2)cc1OC (stereo not shown) [Example 559] | – | 2% | 84% | – | –
CN(C)C(c1ccccc1)C1CCC(CNC(=O)COCCN(C)S(=O)(=O)c2ccc(F)cc2)CC1 (stereo not shown) [Example 112, N-((4-((dimethylamino)(phenyl)methyl)cyclohexyl)methyl)-2-(2-(4-fluoro-N-methylphenylsulfonamido)ethoxy)acetamide] | – | – | – | 85% | -1%
COc1cc(C)c(S(=O)(=O)N(CCOCC(=O)NCCC2CCC(C(c3ccc(F)cc3)N(C)C)CC2)Cc2ccccc2)c(C)c1 (stereo not shown) [Example 547] | 90% | 76% | – | – | –
COc1cc(C)c(S(=O)(=O)N2CCC(CCOCC(=O)NC3CCC(C(c4cccc(F)c4)N(C)C)CC3)CC2)c(C)c1C (stereo not shown) [Example 118, N-(4-((dimethylamino)(3-fluorophenyl)methyl)cyclohexyl)-2-(2-(1-(4-methoxy-2,3,6-trimethylphenylsulfonyl)piperidin-4-yl)ethoxy)acetamide] | – | – | – | 92% | 23%
COc1ccc(S(=O)(=O)N2CCCCC2COCC(=O)NCC2CCC(C(c3ccc(F)cc3)N(C)C)CC2)cc1OC (single isomer, unassigned) [Example 534] | – | −18% | 88% | – | –
COc1ccc(S(=O)(=O)N(C)CCOCC(=O)NCC2CCC(C(CCc3ccccc3)N(C)C)CC2)cc1OC (stereo not shown) [Example 571] | 88% | −10% | – | – | –
Cc1ccc(S(=O)(=O)N2CCC(OCC(=O)NCC3CCC(C(c4ccccc4)N(C)C)CC3)C2)cc1 (stereo not shown) [Example 125, N-((4-((dimethylamino)(phenyl)methyl)cyclohexyl)methyl)-2-(1-tosylpyrrolidin-3-yloxy)acetamide] | – | – | – | 91% | 26%
CN(C)C(CCc1ccccc1)C1CCC(CNC(=O)COCC2CCCN(S(=O)(=O)c3ccccc3)C2)CC1 (stereo not shown) [Example 544] | 92% | 22% | – | – | –
CN(C)C(CCc1ccccc1)C1CCC(CNC(=O)COCCN(C)S(=O)(=O)c2ccc(OC(F)(F)F)cc2)CC1 (stereo not shown) [Example 567] | 93% | 75% | – | – | –
CN(C)C(c1cccs1)C1CCC(CCNC(=O)COCC2CCCN(S(=O)(=O)c3ccccc3)C2)CC1 (stereo not shown) [Example 115, N-(2-(4-((dimethylamino)(thiophen-2-yl)methyl)cyclohexyl)ethyl)-2-((1-(phenylsulfonyl)piperidin-3-yl)methoxy)acetamide] | – | – | – | 97% | 10%
COc1ccc(S(=O)(=O)N2CCC(OCC(=O)NCC3CCC(C(CCc4ccccc4)N(C)C)CC3)C2)cc1OC (stereo not shown) [Example 566] | 87% | 1% | – | – | –
COc1cc(C)c(S(=O)(=O)N(CCOCC(=O)NCCC2CCC(C(c3ccc(Cl)cc3)N(C)C)CC2)Cc2ccccc2)c(C)c1C (stereo not shown) [Example 576] | 73% | −6% | – | – | –
COc1ccc(S(=O)(=O)N2CCCCC2COCC(=O)NCCC2CCC(C(c3cccs3)N(C)C)CC2)c(OC)c1 (stereo not shown) [Example 107, 2-((1-(2,4-dimethoxyphenylsulfonyl)piperidin-2-yl)methoxy)-N-(2-(4-((dimethylamino)(thiophen-2-yl)methyl)cyclohexyl)ethyl)acetamide] | – | – | – | 90% | -4%
CN(C)C(c1ccc(F)cc1)C1CCC(CNC(=O)COCCC2CCN(S(=O)(=O)c3ccccc3)CC2)CC1 (stereo not shown) [Example 583] | 77% | −27% | – | – | –
COc1cc(C)c(S(=O)(=O)N2CCC(OCC(=O)NCC3CCC(C(CCc4ccccc4)N(C)C)CC3)CC2)c(C)c1C (stereo not shown) [Example 546] | 91% | 34% | – | – | –
CN(C)C(c1ccccc1)C1CCC(NC(=O)COCCN(C)S(=O)(=O)c2c(Cl)cccc2Cl)CC1 (stereo not shown) [Example 135, 2-(2-(2,6-dichloro-N-methylphenylsulfonamido)ethoxy)-N-(4-((dimethylamino)(phenyl)methyl)cyclohexyl)acetamide] | – | – | – | 83% | 79%
COc1cc(C)c(S(=O)(=O)N2CCCC(OCC(=O)NCC3CCC(C(CCc4ccccc4)N(C)C)CC3)C2)c(C)c1C (stereo not shown) [Example 551] | 85% | 94% | – | – | –
